Measurements as given in ChEMBL document CHEMBL4184321, “Fragment-Based Drug Discovery of Potent Protein Kinase C Iota Inhibitors” (J Med Chem, 2018).
In brackets after ≈: the same amount, converted by molar mass.

Key:
[1] = target: T1, Protein kinase C iota type (Homo sapiens, UniProt P41743); assay: Inhibition of full-length N-terminal GST-fused human PKC-iota expressed in baculovirus expression system using (5FAM) RFARKGSLRQKNV as substrate after 60 mins by caliper assay
T1 sequence (P41743 whole entry): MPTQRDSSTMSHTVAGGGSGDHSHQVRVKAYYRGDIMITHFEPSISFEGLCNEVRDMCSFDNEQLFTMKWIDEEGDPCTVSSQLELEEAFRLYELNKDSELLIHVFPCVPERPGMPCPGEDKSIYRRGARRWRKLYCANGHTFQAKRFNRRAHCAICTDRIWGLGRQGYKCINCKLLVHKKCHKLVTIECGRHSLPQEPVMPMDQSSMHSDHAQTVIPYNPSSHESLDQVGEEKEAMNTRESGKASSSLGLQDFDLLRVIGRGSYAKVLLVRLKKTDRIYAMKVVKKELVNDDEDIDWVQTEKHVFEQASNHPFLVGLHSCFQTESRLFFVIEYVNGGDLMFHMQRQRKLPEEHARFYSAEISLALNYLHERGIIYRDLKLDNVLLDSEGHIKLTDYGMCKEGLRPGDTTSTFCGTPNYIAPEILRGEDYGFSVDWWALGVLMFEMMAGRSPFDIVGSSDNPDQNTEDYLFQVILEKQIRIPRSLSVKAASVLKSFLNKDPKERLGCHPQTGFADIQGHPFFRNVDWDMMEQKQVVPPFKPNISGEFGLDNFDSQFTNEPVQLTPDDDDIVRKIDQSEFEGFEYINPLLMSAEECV

[2] = target: Protein kinase C alpha type (Homo sapiens, UniProt P17252); assay: Inhibition of full-length N-terminal GST-fused human PKC-alpha expressed in baculovirus expression system using (5FAM) RFARKGSLRQKNV as substrate after 60 mins by caliper assay
[3] = target: T2, Protein kinase C epsilon type (Homo sapiens, UniProt Q02156); assay: Inhibition of full-length N-terminal GST-fused human PKC-epsilon expressed in baculovirus expression system using (5FAM) RFARKGSLRQKNV as substrate after 60 mins by caliper assay
T2 sequence (Q02156 whole entry): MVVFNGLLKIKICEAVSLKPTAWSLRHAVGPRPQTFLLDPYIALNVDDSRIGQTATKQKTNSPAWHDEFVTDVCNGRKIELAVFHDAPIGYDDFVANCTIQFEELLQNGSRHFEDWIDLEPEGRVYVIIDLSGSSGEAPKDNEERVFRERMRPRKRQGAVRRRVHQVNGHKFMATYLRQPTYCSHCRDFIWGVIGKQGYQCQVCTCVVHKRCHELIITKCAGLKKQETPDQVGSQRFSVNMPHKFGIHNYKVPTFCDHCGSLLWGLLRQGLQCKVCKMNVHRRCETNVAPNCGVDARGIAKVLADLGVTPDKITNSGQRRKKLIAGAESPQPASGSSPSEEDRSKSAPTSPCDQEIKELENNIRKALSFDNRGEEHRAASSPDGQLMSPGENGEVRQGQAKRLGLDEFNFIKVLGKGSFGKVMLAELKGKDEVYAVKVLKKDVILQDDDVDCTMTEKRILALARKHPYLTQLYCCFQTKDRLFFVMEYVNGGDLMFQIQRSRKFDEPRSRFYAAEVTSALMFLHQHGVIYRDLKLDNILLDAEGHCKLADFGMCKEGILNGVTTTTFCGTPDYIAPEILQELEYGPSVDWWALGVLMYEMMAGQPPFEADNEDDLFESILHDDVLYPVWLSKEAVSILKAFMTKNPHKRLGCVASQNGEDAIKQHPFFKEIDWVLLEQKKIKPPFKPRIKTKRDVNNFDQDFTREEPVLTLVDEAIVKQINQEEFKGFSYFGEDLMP

[4] = tested on: Huh-7; assay: Antiproliferative activity against human HuH7 cells after 72 hrs by CellTiter-Glo assay; type: functional; details: Huh-7, 72 h
[5] = tested on: HCCLM3; assay: Antiproliferative activity against human HCCLM3 cells after 72 hrs by CellTiter-Glo assay; type: functional; details: HCCLM3, 72 h
[6] = Solubility of the compound at pH 4; type: physicochemical; details: buffer
[7] = Solubility of the compound at pH 7.4; type: physicochemical; details: buffer
[8] = target: Cytochrome P450 2D6 (Homo sapiens, UniProt P10635); assay: Inhibition of CYP2D6 (unknown origin); type: ADME
[9] = Clearance in mouse liver microsomes; type: ADME, microsome; details: read-out: CLH
[10] = Clearance in human liver microsomes; type: ADME, microsome; details: read-out: CLH
[11] = Half life in mouse liver microsomes; type: ADME, microsome
[12] = Half life in human liver microsomes; type: ADME, microsome
[13] = Permeability across apical to basolateral side in human Caco2 cells; type: ADME, cell-based; details: Caco-2, read-out: permeability

Cytochrome P450 2D6, sequence (P10635 whole entry): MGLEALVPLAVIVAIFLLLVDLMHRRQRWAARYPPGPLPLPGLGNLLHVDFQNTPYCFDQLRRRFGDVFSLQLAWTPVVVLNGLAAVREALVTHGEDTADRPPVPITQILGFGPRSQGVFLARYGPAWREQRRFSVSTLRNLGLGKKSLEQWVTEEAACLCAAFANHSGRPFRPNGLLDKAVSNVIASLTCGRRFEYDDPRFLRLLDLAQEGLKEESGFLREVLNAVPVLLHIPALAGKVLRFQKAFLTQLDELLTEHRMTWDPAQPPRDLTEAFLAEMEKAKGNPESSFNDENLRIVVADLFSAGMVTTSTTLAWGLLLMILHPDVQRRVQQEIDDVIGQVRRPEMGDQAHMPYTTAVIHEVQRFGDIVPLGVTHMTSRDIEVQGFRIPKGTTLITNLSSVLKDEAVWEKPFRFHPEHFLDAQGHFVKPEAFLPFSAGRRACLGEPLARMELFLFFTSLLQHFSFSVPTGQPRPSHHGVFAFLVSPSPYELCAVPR

Row | SMILES | IC50 [1] [µM] | IC50 [2] [µM] | other results
1 | Nc1ccc2[nH]cnc2c1 | 728 | – | –
2 | O=C1CCCc2cc(O)ccc21 | 1680 | – | –
3 | COc1cc2c(cc1-c1cnn3ccc(-c4ccnc5[nH]ccc45)cc13)CNCC2 | – | 0.071 | –
4 | COc1ccc2c(c1)C(=O)N(c1cnn3ccc(-c4ccnc5[nH]ccc45)cc13)C2 | – | 2.5 | –
5 | Clc1ccnc2[nH]ccc12 | 1300 | – | –
6 | COc1cc2c(cc1-c1cnc3ccc(-c4ccnc5[nH]ccc45)cn13)CNC2 | – | 0.34 | –
7 | COc1cc2c(cc1-c1cnn3ccc(-c4ccnc5[nH]ccc45)cc13)CN(C)C2 | – | 0.14 | –
8 | Brc1ccnc2[nH]ccc12 | 615 | – | –
9 | COc1cc2c(cc1-n1cnc3cnc(-c4ccnc5[nH]ccc45)cc31)CNC2 | – | 0.25 | –
10 | COc1cc2c(cc1-c1cnn3ccc(-c4ccnc5[nH]ccc45)cc13)CNC(C)C2 (centres undefined) | – | 0.064 | –
11 | COc1cc2c(cc1-c1cnn3ccc(-c4ccnc5[nH]ccc45)nc13)CNC2 | – | 0.35 | –
12 | COc1cc2c(cc1-c1cnn3ccc(-c4ccnc5[nH]ccc45)cc13)CNC(CF)C2 (centres undefined) | 0.0027 | 0.045 | IC50 [3]: 0.045 µM; GI50 [4]: 3.3 µM; GI50 [5]: 6.6 µM
13 | COc1cc2c(cc1-n1cnc3ccc(-c4ccnc5[nH]ccc45)nc31)CNC2 | – | 0.43 | –
14 | COc1cc2c(cc1-n1cnc3ccc(-c4ccnc5[nH]ccc45)cc31)CNC2 | 0.048 | 0.28 | IC50 [3]: 0.56 µM; GI50 [4]: 9 µM; solubility [6]: 790 µg/mL (≈ 2070 µM); solubility [7]: 1.3 µg/mL (≈ 3.41 µM); IC50 [8]: 24 µM; microsomal CLint [9]: 21.5 µL/min/mg; microsomal CLint [10]: 10 µL/min/mg; half-life [11]: 32 min; half-life [12]: 67 min; Papp A→B [13]: 0.57 ×10⁻⁶ cm/s
15 | COc1cc2c(cc1-c1cnc3ccc(-c4ccnc5[nH]ccc45)nn13)CNC2 | – | 1.4 | –
16 | COc1cc2c(cc1-c1cnn3ccc(-c4ccnc5[nH]ccc45)cc13)CN(C(C)=O)C2 | – | 0.38 | –
17 | Cn1ccc2cc(N)ccc21 | 1310 | – | –
18 | COc1cc2c(cc1-c1cnn3ccc(-c4ccnc5[nH]ccc45)cc13)CNC2 | – | 0.11 | –
19 | O=c1[nH]ncc2ccccc12 [PHTHALAZINONE] | 589 | – | –
